Records with an inconclusive call do not appear. The source made the active and inactive calls.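 How the source made its calls: active means called active in every replicate test, with a falling signal and AC50 within twice the top valid dose; inconclusive means replicate tests disagree in their calls; inactive means inactive in every replicate test, including a rising signal.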
Target: Leucyl-cystinyl aminopeptidase (Mus musculus) (UniProt Q8C129)
Assay: inhibition of mouse IRAP Leu-AMC hydrolysis – biochemical, dry powder samples, set 2, selectivity assay for ERAP1 modulator project, dose response (AID 1117285)
Details: purified IRAP, Leu-AMC hydrolysis fluorescence, 1 h

Chain of Leucyl-cystinyl aminopeptidase (Mus musculus) (Q8C129 whole entry, looked up): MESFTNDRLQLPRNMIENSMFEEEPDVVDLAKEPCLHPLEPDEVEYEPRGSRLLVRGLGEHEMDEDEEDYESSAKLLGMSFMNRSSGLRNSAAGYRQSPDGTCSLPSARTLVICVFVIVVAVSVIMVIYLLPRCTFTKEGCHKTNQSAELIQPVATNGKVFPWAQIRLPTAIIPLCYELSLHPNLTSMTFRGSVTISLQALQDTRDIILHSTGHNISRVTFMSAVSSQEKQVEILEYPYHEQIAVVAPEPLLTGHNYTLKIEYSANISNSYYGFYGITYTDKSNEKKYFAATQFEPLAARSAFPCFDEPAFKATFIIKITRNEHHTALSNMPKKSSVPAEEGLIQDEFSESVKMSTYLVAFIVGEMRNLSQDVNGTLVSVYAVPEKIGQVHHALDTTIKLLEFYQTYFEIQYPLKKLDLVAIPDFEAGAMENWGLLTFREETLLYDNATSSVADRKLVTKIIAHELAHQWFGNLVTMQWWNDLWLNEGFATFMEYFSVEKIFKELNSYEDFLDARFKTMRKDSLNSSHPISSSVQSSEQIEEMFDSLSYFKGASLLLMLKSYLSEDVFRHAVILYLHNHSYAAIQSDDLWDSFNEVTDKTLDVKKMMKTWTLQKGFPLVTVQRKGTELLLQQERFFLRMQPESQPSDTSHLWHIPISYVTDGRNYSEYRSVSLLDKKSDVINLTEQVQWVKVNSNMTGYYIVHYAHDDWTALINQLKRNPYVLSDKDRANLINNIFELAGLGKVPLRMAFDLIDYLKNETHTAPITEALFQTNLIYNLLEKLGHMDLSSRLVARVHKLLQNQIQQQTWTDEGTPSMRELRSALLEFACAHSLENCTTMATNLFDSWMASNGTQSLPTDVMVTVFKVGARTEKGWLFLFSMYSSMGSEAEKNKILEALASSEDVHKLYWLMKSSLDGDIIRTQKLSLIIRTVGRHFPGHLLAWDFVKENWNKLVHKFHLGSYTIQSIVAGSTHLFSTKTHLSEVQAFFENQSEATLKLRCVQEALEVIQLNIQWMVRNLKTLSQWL

AC50, inactive:
CC(=O)N1CCN(C(=O)[C@@H]2CCN2C(=O)Nc2ccc(C)cc2)CC1 > 100 µM, COC(=O)[C@H](CCCCN)NC(=O)c1ccc(N)c(NC(=O)[C@@H](N)CCc2ccccc2)c1 > 100 µM

Same assay, conditions: purified IRAP, Leu-AMC hydrolysis fluorescence, 1 h; at 0.1 µM; lower = more inhibition

Max activity % (lower = more inhibition), inactive:
Cc1ccc(NC(=O)NC2(C(=O)N3CCOCC3)CCCCC2)cc1, COc1ccc(C(=O)Nc2cc(C(F)(F)F)ccc2N2CCOCC2)cc1S(=O)(=O)O, CC(=O)N1CCN(C(=O)C2(NC(=O)Nc3ccc(C)cc3)CCCCC2)CC1, CC(=O)N1CCN(C(=O)C2(NC(=O)NC(C)(C)C)CCCCC2)CC1, CC(=O)N1CCN(C(=O)C2(NC(=O)Nc3ccc(Cl)cc3)CCCCC2)CC1, CC(=O)N1CCN(C(=O)C2(NC(=O)Nc3ccc(C(F)(F)F)cc3)CCCC2)CC1, CC(=O)N1CCN(C(=O)CNC(=O)Nc2ccc(C)cc2)CC1

Same assay, conditions: purified IRAP, Leu-AMC hydrolysis fluorescence, 1 h; at 0.195 µM; lower = more inhibition

Max activity % (lower = more inhibition), inactive:
CC(=O)N1CCN(C(=O)C2(NC(=O)Nc3ccccc3C(F)(F)F)CCCCC2)CC1, COc1ccc(C(=O)Nc2cc(C(F)(F)F)ccc2N2CCCC2)cc1S(=O)(=O)O, Cc1ccccc1S(=O)(=O)Nc1cc(C(F)(F)F)ccc1N1CCCCC1, NC(=NCCc1c[nH]c2ccccc12)NS(=O)(=O)c1cc(F)ccc1F, COc1ccc(S(=O)(=O)Nc2cc(C(F)(F)F)ccc2N2CCCCC2)cc1, CC(=O)N1CCN(C(=O)C2(NC(=O)Nc3cccc(F)c3)CCCCC2)CC1, O=S(=O)(Nc1cc(C(F)(F)F)ccc1N1CCCCC1)c1ccccc1, O=[N+]([O-])c1cccc(S(=O)(=O)Nc2cc(C(F)(F)F)ccc2N2CCCCC2)c1, CC(=O)N1CCN(C(=O)C2(NC(=O)Nc3ccc(C(C)C)cc3)CCCC2)CC1, CC(=O)N1CCN(C(=O)C2(NC(=O)Nc3ccccc3)CCCC2)CC1, O=S(=O)(Nc1cc(C(F)(F)F)ccc1N1CCCCC1)c1ccc(F)cc1, CC(=O)N1CCN(C(=O)C2(NC(=O)Nc3ccc(C(F)(F)F)cc3)CCCCC2)CC1, CC(=O)N1CCN(C(=O)C2CCCN2C(=O)Nc2ccc(C)cc2)CC1 (stereo not given)

Same assay, conditions: purified IRAP, Leu-AMC hydrolysis fluorescence, 1 h; at 0.38 µM; lower = more inhibition

Max activity % (lower = more inhibition), inactive:
CC(=O)N1CCN(C(=O)C2(NC(=O)Nc3cccc(C(F)(F)F)c3)CCCCC2)CC1, CC(=O)N1CCN(C(=O)C2(NC(=O)Nc3ccc(C(C)C)cc3)CCCCC2)CC1, Cc1ccc(NC(=O)NC2(C(=O)N3CCN(c4ccccc4)CC3)CCCCC2)cc1, O=S(=O)(Nc1cc(C(F)(F)F)ccc1N1CCCCC1)c1cc(Cl)cc(Cl)c1

Same assay, conditions: purified IRAP, Leu-AMC hydrolysis fluorescence, 1 h; at 0.8 µM; lower = more inhibition

Max activity % (lower = more inhibition), inactive:
N#Cc1ccc(S(=O)(=O)Nc2cc(C(F)(F)F)ccc2N2CCCCC2)cc1, O=S(=O)(Nc1cc(C(F)(F)F)ccc1N1CCCCC1)c1ccc(Cl)cc1, O=[N+]([O-])c1ccc(S(=O)(=O)Nc2cc(C(F)(F)F)ccc2N2CCCCC2)c([N+](=O)[O-])c1, Cn1cnc(S(=O)(=O)Nc2cc(C(F)(F)F)ccc2N2CCCCC2)c1, CC(=O)N1CCN(C(=O)C2(NC(=O)Nc3ccccc3F)CCCCC2)CC1

Same assay, conditions: purified IRAP, Leu-AMC hydrolysis fluorescence, 1 h; at 3 µM; lower = more inhibition

Max activity % (lower = more inhibition), inactive:
O=S(=O)(Nc1cc(C(F)(F)F)ccc1N1CCCCC1)c1ccc(-c2ccccc2)cc1, O=S(=O)(Nc1cc(C(F)(F)F)ccc1N1CCCCC1)c1ccc(C(F)(F)F)cc1, O=S(=O)(Nc1cc(C(F)(F)F)ccc1N1CCCCC1)c1ccc(Br)cc1, CC(=O)N1CCN(C(=O)C2(NC(=O)Nc3ccc(F)cc3)CCCC2)CC1

Same assay, conditions: purified IRAP, Leu-AMC hydrolysis fluorescence, 1 h; at 12 µM; lower = more inhibition

Max activity % (lower = more inhibition), inactive:
COc1ccc(NC(=O)NC2(C(=O)N3CCN(C(C)=O)CC3)CCCCC2)cc1, COc1cccc(NC(=O)NC2(C(=O)N3CCN(C(C)=O)CC3)CCCCC2)c1

Same assay, conditions: purified IRAP, Leu-AMC hydrolysis fluorescence, 1 h; at 50 µM; lower = more inhibition

Max activity % (lower = more inhibition), inactive:
CC(=O)N1CCN(C(=O)C2(NC(=O)Nc3ccccc3)CCCCC2)CC1, COc1ccc(C(=O)Nc2ccccc2N2CCCCC2)cc1S(=O)(=O)O, COc1ccc(C(=O)Nc2cccc(C(F)(F)F)c2)cc1S(=O)(=O)O, COc1ccc(C(=O)Nc2cc(F)ccc2N2CCCCC2)cc1S(=O)(=O)O, CC(=O)N1CCN(C(=O)C2(NC(=O)Nc3ccc(F)cc3)CCCCC2)CC1, CC(=O)N1CCN(C(=O)C(C)(C)NC(=O)Nc2ccc(C)cc2)CC1, CC(=O)N1CCN(C(=O)C2(NC(=O)NCCc3ccccc3)CCCCC2)CC1, COc1ccc(C(=O)Nc2cc(C(F)(F)F)ccc2N2CCCCC2)cc1S(=O)(=O)O, CC(=O)N1CCN(C(=O)C2(NC(=O)Nc3ccccc3F)CCCCC2)CC1, O=C(Nc1cc(C(F)(F)F)ccc1N1CCCCC1)c1ccc(S(=O)(=O)O)cc1, COc1ccc(C(=O)Nc2cc(C)ccc2N2CCCCC2)cc1S(=O)(=O)O

Same assay, conditions: purified IRAP, Leu-AMC hydrolysis fluorescence, 1 h; lower = more inhibition

Max activity % (lower = more inhibition), inactive:
COc1ccc(C(=O)O)cc1S(=O)(=O)Nc1ccccc1N1CCCCC1, COc1ccc(C(=O)O)cc1S(=O)(=O)Nc1cc(C(F)(F)F)ccc1N(C)C, COc1ccc(C(=O)O)cc1S(=O)(=O)Nc1cc(C(F)(F)F)ccc1N1CCOCC1, COc1ccc(C(=O)O)cc1S(=O)(=O)Nc1cc(C(F)(F)F)ccc1N1CCCCC1, COc1ccc(C(=O)O)cc1S(=O)(=O)Nc1cc(F)ccc1N1CCCCC1, COc1ccc(C(=O)O)cc1S(=O)(=O)Nc1cc(C)ccc1N1CCCCC1, COC(=O)c1ccc(OC)c(S(=O)(=O)Nc2cc(C(F)(F)F)ccc2N2CCCCC2)c1
